ChEMBL document CHEMBL1268945, “Sequential cytotoxicity: a theory examined using a series of 3,5-bis(benzylidene)-1-diethylphosphono-4-oxopiperidines and related phosphonic acids” (Bioorg Med Chem Lett, 2010)

System: HSC-3
Experiment: Selectivity index, ratio of CC50 for normal cells to CC50 for human HSC3 cells
Type: functional
In the case of `N[C@@H](Cc1ccc(N(CCCl)CCCl)cc1)C(=O)O` [MELPHALAN], the “Selectivity Index” value was 8.4. With `CCOP(=O)(OCC)N1C/C(=C\c2ccccc2)C(=O)/C(=C/c2ccccc2)C1` the “Selectivity Index” value was 3.7. For `CCOP(=O)(OCC)N1C/C(=C\c2cc(OC)c(OC)c(OC)c2)C(=O)/C(=C/c2cc(OC)c(OC)c(OC)c2)C1`, the “Selectivity Index” value was 4.2. In the case of `O=C1/C(=C/c2cccc([N+](=O)[O-])c2)CN(P(=O)(O)O)C/C1=C\c1cccc([N+](=O)[O-])c1`, the “Selectivity Index” value was 14. With `CCOP(=O)(OCC)N1C/C(=C\c2ccc([N+](=O)[O-])cc2)C(=O)/C(=C/c2ccc([N+](=O)[O-])cc2)C1` the “Selectivity Index” value was 6.3.

System: HL-60
Experiment: Selectivity index, ratio of CC50 for normal cells to CC50 for human HL60 cells
Type: functional
For `N[C@@H](Cc1ccc(N(CCCl)CCCl)cc1)C(=O)O` [MELPHALAN], the “Selectivity Index” value was 150. In the case of `CCOP(=O)(OCC)N1C/C(=C\c2ccccc2)C(=O)/C(=C/c2ccccc2)C1`, the “Selectivity Index” value was 15. For `CCOP(=O)(OCC)N1C/C(=C\c2cc(OC)c(OC)c(OC)c2)C(=O)/C(=C/c2cc(OC)c(OC)c(OC)c2)C1`, the “Selectivity Index” value was 6.2. With `O=C1/C(=C/c2cccc([N+](=O)[O-])c2)CN(P(=O)(O)O)C/C1=C\c1cccc([N+](=O)[O-])c1` the “Selectivity Index” value was 30. For `CCOP(=O)(OCC)N1C/C(=C\c2ccc([N+](=O)[O-])cc2)C(=O)/C(=C/c2ccc([N+](=O)[O-])cc2)C1`, the “Selectivity Index” value was 17.

System: not listed separately
Experiment: Cytotoxicity against human HPLF cells
Type: cell-based
`N[C@@H](Cc1ccc(N(CCCl)CCCl)cc1)C(=O)O` [MELPHALAN] gave a CC50 of 199 µM. For `CCOP(=O)(OCC)N1C/C(=C\c2ccccc2)C(=O)/C(=C/c2ccccc2)C1`, the CC50 was 10 µM. `CCOP(=O)(OCC)N1C/C(=C\c2cc(OC)c(OC)c(OC)c2)C(=O)/C(=C/c2cc(OC)c(OC)c(OC)c2)C1` gave a CC50 of 2.2 µM. With `O=C1/C(=C/c2cccc([N+](=O)[O-])c2)CN(P(=O)(O)O)C/C1=C\c1cccc([N+](=O)[O-])c1` the CC50 was 3.3 µM. `CCOP(=O)(OCC)N1C/C(=C\c2ccc([N+](=O)[O-])cc2)C(=O)/C(=C/c2ccc([N+](=O)[O-])cc2)C1` showed a CC50 of 2.2 µM.

System: HSC-4
Experiment: Selectivity index, ratio of CC50 for normal cells to CC50 for human HSC4 cells
Type: functional
For `N[C@@H](Cc1ccc(N(CCCl)CCCl)cc1)C(=O)O` [MELPHALAN], the “Selectivity Index” value was 6.6. With `CCOP(=O)(OCC)N1C/C(=C\c2ccccc2)C(=O)/C(=C/c2ccccc2)C1` the “Selectivity Index” value was 8.4. With `CCOP(=O)(OCC)N1C/C(=C\c2cc(OC)c(OC)c(OC)c2)C(=O)/C(=C/c2cc(OC)c(OC)c(OC)c2)C1` the “Selectivity Index” value was 11. With `O=C1/C(=C/c2cccc([N+](=O)[O-])c2)CN(P(=O)(O)O)C/C1=C\c1cccc([N+](=O)[O-])c1` the “Selectivity Index” value was 19. In the case of `CCOP(=O)(OCC)N1C/C(=C\c2ccc([N+](=O)[O-])cc2)C(=O)/C(=C/c2ccc([N+](=O)[O-])cc2)C1`, the “Selectivity Index” value was 3.3.

System: HSC-2
Experiment: Cytotoxicity against human HSC2 cells
Type: functional
In the case of `N[C@@H](Cc1ccc(N(CCCl)CCCl)cc1)C(=O)O` [MELPHALAN], the CC50 was 8.7 µM. Work on `CCOP(=O)(OCC)N1C/C(=C\c2ccccc2)C(=O)/C(=C/c2ccccc2)C1` yielded a CC50 of 2.4 µM. For `CCOP(=O)(OCC)N1C/C(=C\c2cc(OC)c(OC)c(OC)c2)C(=O)/C(=C/c2cc(OC)c(OC)c(OC)c2)C1`, the CC50 was 0.33 µM. With `O=C1/C(=C/c2cccc([N+](=O)[O-])c2)CN(P(=O)(O)O)C/C1=C\c1cccc([N+](=O)[O-])c1` the CC50 was 0.2 µM. Work on `CCOP(=O)(OCC)N1C/C(=C\c2ccc([N+](=O)[O-])cc2)C(=O)/C(=C/c2ccc([N+](=O)[O-])cc2)C1` yielded a CC50 of 0.33 µM.

System: HSC-3
Experiment: Cytotoxicity against human HSC3 cells
Type: functional
With `N[C@@H](Cc1ccc(N(CCCl)CCCl)cc1)C(=O)O` [MELPHALAN] the CC50 was 25 µM. In the case of `CCOP(=O)(OCC)N1C/C(=C\c2ccccc2)C(=O)/C(=C/c2ccccc2)C1`, the CC50 was 2.5 µM. Work on `CCOP(=O)(OCC)N1C/C(=C\c2cc(OC)c(OC)c(OC)c2)C(=O)/C(=C/c2cc(OC)c(OC)c(OC)c2)C1` yielded a CC50 of 0.43 µM. Work on `O=C1/C(=C/c2cccc([N+](=O)[O-])c2)CN(P(=O)(O)O)C/C1=C\c1cccc([N+](=O)[O-])c1` yielded a CC50 of 0.18 µM. `CCOP(=O)(OCC)N1C/C(=C\c2ccc([N+](=O)[O-])cc2)C(=O)/C(=C/c2ccc([N+](=O)[O-])cc2)C1` showed a CC50 of 0.38 µM.

System: HSC-2
Experiment: Selectivity index, ratio of CC50 for normal cells to CC50 for human HSC2 cells
Type: functional
For `N[C@@H](Cc1ccc(N(CCCl)CCCl)cc1)C(=O)O` [MELPHALAN], the “Selectivity Index” value was 24. For `CCOP(=O)(OCC)N1C/C(=C\c2ccccc2)C(=O)/C(=C/c2ccccc2)C1`, the “Selectivity Index” value was 3.8. For `CCOP(=O)(OCC)N1C/C(=C\c2cc(OC)c(OC)c(OC)c2)C(=O)/C(=C/c2cc(OC)c(OC)c(OC)c2)C1`, the “Selectivity Index” value was 5.5. In the case of `O=C1/C(=C/c2cccc([N+](=O)[O-])c2)CN(P(=O)(O)O)C/C1=C\c1cccc([N+](=O)[O-])c1`, the “Selectivity Index” value was 13. In the case of `CCOP(=O)(OCC)N1C/C(=C\c2ccc([N+](=O)[O-])cc2)C(=O)/C(=C/c2ccc([N+](=O)[O-])cc2)C1`, the “Selectivity Index” value was 7.3.

System: not listed separately
Experiment: Cytotoxicity against human HPC cells
Type: cell-based
`N[C@@H](Cc1ccc(N(CCCl)CCCl)cc1)C(=O)O` [MELPHALAN] gave a CC50 of 269 µM. Molecule `CCOP(=O)(OCC)N1C/C(=C\c2ccccc2)C(=O)/C(=C/c2ccccc2)C1` has a CC50 of 6.5 µM. Work on `CCOP(=O)(OCC)N1C/C(=C\c2cc(OC)c(OC)c(OC)c2)C(=O)/C(=C/c2cc(OC)c(OC)c(OC)c2)C1` yielded a CC50 of 1.3 µM. In the case of `O=C1/C(=C/c2cccc([N+](=O)[O-])c2)CN(P(=O)(O)O)C/C1=C\c1cccc([N+](=O)[O-])c1`, the CC50 was 2.2 µM. With `CCOP(=O)(OCC)N1C/C(=C\c2ccc([N+](=O)[O-])cc2)C(=O)/C(=C/c2ccc([N+](=O)[O-])cc2)C1` the CC50 was 1.9 µM.

System: HL-60
Experiment: Cytotoxicity against human HL60 cells
Type: functional
For `N[C@@H](Cc1ccc(N(CCCl)CCCl)cc1)C(=O)O` [MELPHALAN], the CC50 was 1.4 µM. Work on `CCOP(=O)(OCC)N1C/C(=C\c2ccccc2)C(=O)/C(=C/c2ccccc2)C1` yielded a CC50 of 0.61 µM. `CCOP(=O)(OCC)N1C/C(=C\c2cc(OC)c(OC)c(OC)c2)C(=O)/C(=C/c2cc(OC)c(OC)c(OC)c2)C1` showed a CC50 of 0.29 µM. In the case of `O=C1/C(=C/c2cccc([N+](=O)[O-])c2)CN(P(=O)(O)O)C/C1=C\c1cccc([N+](=O)[O-])c1`, the CC50 was 0.09 µM. Molecule `CCOP(=O)(OCC)N1C/C(=C\c2ccc([N+](=O)[O-])cc2)C(=O)/C(=C/c2ccc([N+](=O)[O-])cc2)C1` has a CC50 of 0.14 µM.

System: not listed separately
Experiment: Cytotoxicity against human HGF cells
Type: cell-based
`N[C@@H](Cc1ccc(N(CCCl)CCCl)cc1)C(=O)O` [MELPHALAN] gave a CC50 of 161 µM. In the case of `CCOP(=O)(OCC)N1C/C(=C\c2ccccc2)C(=O)/C(=C/c2ccccc2)C1`, the CC50 was 11 µM. Work on `CCOP(=O)(OCC)N1C/C(=C\c2cc(OC)c(OC)c(OC)c2)C(=O)/C(=C/c2cc(OC)c(OC)c(OC)c2)C1` yielded a CC50 of 2 µM. `O=C1/C(=C/c2cccc([N+](=O)[O-])c2)CN(P(=O)(O)O)C/C1=C\c1cccc([N+](=O)[O-])c1` gave a CC50 of 2.3 µM. Work on `CCOP(=O)(OCC)N1C/C(=C\c2ccc([N+](=O)[O-])cc2)C(=O)/C(=C/c2ccc([N+](=O)[O-])cc2)C1` yielded a CC50 of 3.1 µM.

System: HSC-4
Experiment: Cytotoxicity against human HSC4 cells
Type: functional
Molecule `N[C@@H](Cc1ccc(N(CCCl)CCCl)cc1)C(=O)O` [MELPHALAN] has a CC50 of 32 µM. In the case of `CCOP(=O)(OCC)N1C/C(=C\c2ccccc2)C(=O)/C(=C/c2ccccc2)C1`, the CC50 was 1.1 µM. For `CCOP(=O)(OCC)N1C/C(=C\c2cc(OC)c(OC)c(OC)c2)C(=O)/C(=C/c2cc(OC)c(OC)c(OC)c2)C1`, the CC50 was 0.16 µM. Work on `O=C1/C(=C/c2cccc([N+](=O)[O-])c2)CN(P(=O)(O)O)C/C1=C\c1cccc([N+](=O)[O-])c1` yielded a CC50 of 0.14 µM. `CCOP(=O)(OCC)N1C/C(=C\c2ccc([N+](=O)[O-])cc2)C(=O)/C(=C/c2ccc([N+](=O)[O-])cc2)C1` showed a CC50 of 0.72 µM.
